Experimental data as given in publication PMC11087268, “A folate inhibitor exploits metabolic differences in Pseudomonas aeruginosa for narrow-spectrum targeting” (Nature Microbiology, 2024).

Key:
[1] = system: P. aeruginosa PA14 nfxB mutants; test: MIC against fluorofolin-resistant PA14 nfxB mutants in liquid culture; type: cell-based; conditions: Pseudomonas aeruginosa
Protocol: Overnight cultures were diluted 1:150 in LB broth and added to a 96-well plate. Antibiotics were serially diluted 1:2 and added to columns of the 96-well plate and grown at 37 °C with continuous shaking. Cell growth was measured using optical density at 600 nm (OD600). MIC assays were performed in either BioTek Synergy HT or Tecan InfiniteM200 Pro microplate readers.
Resistant mutants were maintained as a frozen stock.

P. aeruginosa PA14 = test: Growth of P. aeruginosa PA14 in TMI-supplemented media with fluorofolin; type: cell-based, Pseudomonas aeruginosa; further: test concentration or dose not given here

SMILES: Nc1nc(N)c2c(ccc3c2ccn3Cc2ccnc(F)c2)n1 [fluorofolin]
- MIC [1]: > 100 µg/mL
- OD600 of P. Aeruginosa PA14 (P. aeruginosa PA14; Fluorofolin + TMI, Time 0 min): 0.00375
- OD600 of P. Aeruginosa PA14 (P. aeruginosa PA14; Fluorofolin + TMI, Time 64.0617 min): 0.00775
- OD600 of P. Aeruginosa PA14 (P. aeruginosa PA14; Fluorofolin + TMI, Time 74.7383 min): 0.00825
- OD600 of P. Aeruginosa PA14 (P. aeruginosa PA14; Fluorofolin + TMI, Time 85.415 min): 0.0086
- OD600 of P. Aeruginosa PA14 (P. aeruginosa PA14; Fluorofolin + TMI, Time 96.0917 min): 0.0088
- OD600 of P. Aeruginosa PA14 (P. aeruginosa PA14; Fluorofolin + TMI, Time 106.768 min): 0.00895
- OD600 of P. Aeruginosa PA14 (P. aeruginosa PA14; Fluorofolin + TMI, Time 117.445 min): 0.00965
- OD600 of P. Aeruginosa PA14 (P. aeruginosa PA14; Fluorofolin + TMI, Time 128.123 min): 0.00995
- OD600 of P. Aeruginosa PA14 (P. aeruginosa PA14; Fluorofolin + TMI, Time 138.8 min): 0.0106
- OD600 of P. Aeruginosa PA14 (P. aeruginosa PA14; Fluorofolin + TMI, Time 149.477 min): 0.01185
- OD600 of P. Aeruginosa PA14 (P. aeruginosa PA14; Fluorofolin + TMI, Time 160.153 min): 0.0109
- OD600 of P. Aeruginosa PA14 (P. aeruginosa PA14; Fluorofolin + TMI, Time 170.83 min): 0.01125
- OD600 of P. Aeruginosa PA14 (P. aeruginosa PA14; Fluorofolin + TMI, Time 181.507 min): 0.01245
- OD600 of P. Aeruginosa PA14 (P. aeruginosa PA14; Fluorofolin + TMI, Time 192.183 min): 0.01295
- OD600 of P. Aeruginosa PA14 (P. aeruginosa PA14; Fluorofolin + TMI, Time 202.86 min): 0.0136
- OD600 of P. Aeruginosa PA14 (P. aeruginosa PA14; Fluorofolin + TMI, Time 213.537 min): 0.01355
- OD600 of P. Aeruginosa PA14 (P. aeruginosa PA14; Fluorofolin + TMI, Time 224.213 min): 0.01385
- OD600 of P. Aeruginosa PA14 (P. aeruginosa PA14; Fluorofolin + TMI, Time 234.89 min): 0.0143
- OD600 of P. Aeruginosa PA14 (P. aeruginosa PA14; Fluorofolin + TMI, Time 245.567 min): 0.0154
- OD600 of P. Aeruginosa PA14 (P. aeruginosa PA14; Fluorofolin + TMI, Time 256.243 min): 0.01575
- OD600 of P. Aeruginosa PA14 (P. aeruginosa PA14; Fluorofolin + TMI, Time 266.922 min): 0.0155
- OD600 of P. Aeruginosa PA14 (P. aeruginosa PA14; Fluorofolin + TMI, Time 277.598 min): 0.0159
- OD600 of P. Aeruginosa PA14 (P. aeruginosa PA14; Fluorofolin + TMI, Time 288.275 min): 0.01755
- OD600 of P. Aeruginosa PA14 (P. aeruginosa PA14; Fluorofolin + TMI, Time 298.952 min): 0.01775
- OD600 of P. Aeruginosa PA14 (P. aeruginosa PA14; Fluorofolin + TMI, Time 309.628 min): 0.01825
- OD600 of P. Aeruginosa PA14 (P. aeruginosa PA14; Fluorofolin + TMI, Time 320.305 min): 0.0182
- OD600 of P. Aeruginosa PA14 (P. aeruginosa PA14; Fluorofolin + TMI, Time 330.982 min): 0.0183
- OD600 of P. Aeruginosa PA14 (P. aeruginosa PA14; Fluorofolin + TMI, Time 341.658 min): 0.0174
- OD600 of P. Aeruginosa PA14 (P. aeruginosa PA14; Fluorofolin + TMI, Time 352.335 min): 0.01685
- OD600 of P. Aeruginosa PA14 (P. aeruginosa PA14; Fluorofolin + TMI, Time 363.012 min): 0.01765
- OD600 of P. Aeruginosa PA14 (P. aeruginosa PA14; Fluorofolin + TMI, Time 373.688 min): 0.01775
- OD600 of P. Aeruginosa PA14 (P. aeruginosa PA14; Fluorofolin + TMI, Time 384.365 min): 0.01795
- OD600 of P. Aeruginosa PA14 (P. aeruginosa PA14; Fluorofolin + TMI, Time 395.042 min): 0.01805
- OD600 of P. Aeruginosa PA14 (P. aeruginosa PA14; Fluorofolin + TMI, Time 405.718 min): 0.01805
- OD600 of P. Aeruginosa PA14 (P. aeruginosa PA14; Fluorofolin + TMI, Time 416.395 min): 0.01825
- OD600 of P. Aeruginosa PA14 (P. aeruginosa PA14; Fluorofolin + TMI, Time 427.072 min): 0.01805
- OD600 of P. Aeruginosa PA14 (P. aeruginosa PA14; Fluorofolin + TMI, Time 437.748 min): 0.01825
- OD600 of P. Aeruginosa PA14 (P. aeruginosa PA14; Fluorofolin + TMI, Time 448.425 min): 0.018
- OD600 of P. Aeruginosa PA14 (P. aeruginosa PA14; Fluorofolin + TMI, Time 459.102 min): 0.0175
- OD600 of P. Aeruginosa PA14 (P. aeruginosa PA14; Fluorofolin + TMI, Time 469.78 min): 0.01855
- OD600 of P. Aeruginosa PA14 (P. aeruginosa PA14; Fluorofolin + TMI, Time 480.457 min): 0.0181
- OD600 of P. Aeruginosa PA14 (P. aeruginosa PA14; Fluorofolin + TMI, Time 491.133 min): 0.01785
- OD600 of P. Aeruginosa PA14 (P. aeruginosa PA14; Fluorofolin + TMI, Time 501.81 min): 0.01825
- OD600 of P. Aeruginosa PA14 (P. aeruginosa PA14; Fluorofolin + TMI, Time 512.487 min): 0.0184
- OD600 of P. Aeruginosa PA14 (P. aeruginosa PA14; Fluorofolin + TMI, Time 523.163 min): 0.01965
- OD600 of P. Aeruginosa PA14 (P. aeruginosa PA14; Fluorofolin + TMI, Time 533.84 min): 0.0189
- OD600 of P. Aeruginosa PA14 (P. aeruginosa PA14; Fluorofolin + TMI, Time 544.517 min): 0.0184
- OD600 of P. Aeruginosa PA14 (P. aeruginosa PA14; Fluorofolin + TMI, Time 555.193 min): 0.01805
- OD600 of P. Aeruginosa PA14 (P. aeruginosa PA14; Fluorofolin + TMI, Time 565.87 min): 0.0187
- OD600 of P. Aeruginosa PA14 (P. aeruginosa PA14; Fluorofolin + TMI, Time 576.547 min): 0.01815
- OD600 of P. Aeruginosa PA14 (P. aeruginosa PA14; Fluorofolin, Time 0 min): -0.00105
- OD600 of P. Aeruginosa PA14 (P. aeruginosa PA14; Fluorofolin, Time 64.0617 min): 0.00425
- OD600 of P. Aeruginosa PA14 (P. aeruginosa PA14; Fluorofolin, Time 74.7383 min): 0.0047
